These results are taken from PubChem BioAssay (NCI).

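Exposure lasted 48 hours, with cells grown in 96-well plates and compounds tested at five concentrations. GI50 = concentration required for 50% inhibition of growth. Definition used: TGI = concentration required for complete inhibition of growth.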 A value given as a limit tells only on which side of the number the result lay.

Some test systems named below: BT-549 breast; HL-60(TB) leukemia; UACC-257 melanoma; SK-MEL-28 melanoma; CAKI-1 renal; UO-31 renal; EKVX NSCLC; M14 melanoma; NCI-H226 lung; K-562 leukemia.
Holding throughout (assay): NCI-60 cell line screen, 48 h

In the case of `FC(F)(F)C1(c2ccccc2)SCc2nc3ccccc3n21` (configuration not stated), the TGI in the test on BT-549 breast, in the test on HL-60(TB) leukemia, with UACC-257 melanoma, with SK-MEL-28 melanoma, with CAKI-1 renal and in the test with UO-31 renal was greater than 100 µM in each case. Also, the TGI with EKVX NSCLC, in the test on M14 melanoma, in the test with NCI-H226 lung and in the test with K-562 leukemia was greater than 100 µM throughout.
Turning to `COc1ccc(Br)c(C=Nc2cccc3cc(OC)c(OC)cc23)c1`, the TGI in the test on BT-549 breast was greater than 46 µM; in the test on HL-60(TB) leukemia, 7.97 µM; in the test with UACC-257 melanoma, greater than 100 µM; in the test on SK-MEL-28 melanoma, greater than 100 µM; in the test with CAKI-1 renal, greater than 100 µM; in the test on UO-31 renal, 97.5 µM. Further, the TGI in the test with EKVX NSCLC is greater than 100 µM; with M14 melanoma it was greater than 58.1 µM; in the test with NCI-H226 lung it was greater than 100 µM; with K-562 leukemia it was greater than 39.6 µM.
Regarding `COC(=O)/C=C/c1cnc2c(c1)oc(=O)n2C`, the TGI in the test with BT-549 breast, in the test with HL-60(TB) leukemia, in the test on UACC-257 melanoma, in the test with SK-MEL-28 melanoma, in the test with CAKI-1 renal and in the test with UO-31 renal was greater than 100 µM in each case. The TGI in the test on EKVX NSCLC, with M14 melanoma, in the test on NCI-H226 lung and in the test on K-562 leukemia was greater than 100 µM in each case.
In the case of `COc1ccc2c(c1)C(=O)[C@@](Nc1ccc(C=O)cc1)(OC)[C@@](OC)(c1ccc([N+](=O)[O-])cc1)O2`, the TGI in the test with BT-549 breast, in the test on HL-60(TB) leukemia, with UACC-257 melanoma, in the test with SK-MEL-28 melanoma, in the test with CAKI-1 renal and in the test on UO-31 renal was greater than 10 µM each time. Also, the TGI with EKVX NSCLC, in the test on M14 melanoma, with NCI-H226 lung and in the test on K-562 leukemia was greater than 10 µM each time.
For `O=C1CSC(c2cccc(Oc3ccccc3)c2)N1c1cccc(Cl)c1Cl` (configuration not stated), the TGI with BT-549 breast is 50.4 µM; in the test on HL-60(TB) leukemia, 70.2 µM; with UACC-257 melanoma it was 61.5 µM; in the test with SK-MEL-28 melanoma, greater than 100 µM; with CAKI-1 renal, greater than 100 µM; in the test with UO-31 renal, greater than 100 µM. For the same compound, the TGI with EKVX NSCLC was 99.3 µM; in the test on M14 melanoma, greater than 100 µM; in the test with NCI-H226 lung, greater than 100 µM; in the test on K-562 leukemia, 63.9 µM.
`ClCCc1ccccc1CC1=NCCc2ccccc21`: the TGI in the test with BT-549 breast is 97.9 µM; in the test on HL-60(TB) leukemia, greater than 100 µM; in the test on UACC-257 melanoma, greater than 100 µM; in the test with SK-MEL-28 melanoma, greater than 100 µM; in the test with CAKI-1 renal it was 92.4 µM; in the test on UO-31 renal, 38.3 µM. Besides, the TGI was greater than 100 µM with EKVX NSCLC, 71.5 µM in the test with M14 melanoma, greater than 100 µM in the test on NCI-H226 lung and greater than 100 µM in the test with K-562 leukemia.
With `COc1c2occc2cc2ccc(=O)oc12`, the TGI in the test on BT-549 breast, in the test on HL-60(TB) leukemia, with UACC-257 melanoma, with SK-MEL-28 melanoma, in the test on CAKI-1 renal and in the test with UO-31 renal was greater than 100 µM throughout. The TGI in the test with EKVX NSCLC, with M14 melanoma, in the test on NCI-H226 lung and in the test with K-562 leukemia was greater than 100 µM throughout. Also, the GI50 in the test with EKVX NSCLC is 96.9 µM; with NCI-H226 lung it was greater than 100 µM.
With `Cc1cc(=O)n2nc(CSc3n[nH]c(=S)s3)sc2n1`, the TGI with BT-549 breast, in the test with HL-60(TB) leukemia, with UACC-257 melanoma, with SK-MEL-28 melanoma, in the test on CAKI-1 renal and in the test on UO-31 renal was greater than 100 µM each time. The TGI with EKVX NSCLC, in the test with M14 melanoma, in the test on NCI-H226 lung and with K-562 leukemia was greater than 100 µM in each case.
`C=CC(C)(C)n1cc(C2=C(O)C(=O)C(c3c(CC=C(C)C)[nH]c4ccccc34)=C(O)C2=O)c2ccccc21`: the TGI in the test on BT-549 breast was 1.91 µM; with HL-60(TB) leukemia, 4.69 µM; with UACC-257 melanoma, 9.3 µM; with SK-MEL-28 melanoma, 2.03 µM; in the test on CAKI-1 renal, 7.16 µM; with UO-31 renal, 1.9 µM. Further, the TGI in the test on EKVX NSCLC was 6.01 µM; in the test on M14 melanoma, 4.24 µM; in the test with NCI-H226 lung, 3.64 µM; in the test on K-562 leukemia, 5.02 µM.
With `COc1cc(C(=O)N(C(=S)OC23CC4CC(CC(C4)C2)C3)c2ccccc2)cc(OC)c1OC`, the TGI was greater than 100 µM in the test with BT-549 breast; 45.8 µM in the test on HL-60(TB) leukemia; greater than 100 µM in the test on UACC-257 melanoma; greater than 100 µM with SK-MEL-28 melanoma; greater than 100 µM with CAKI-1 renal; 79 µM in the test with UO-31 renal. Besides, the TGI in the test on EKVX NSCLC is 48.1 µM; in the test on M14 melanoma it was 39.7 µM; in the test with NCI-H226 lung, greater than 100 µM; with K-562 leukemia it was greater than 100 µM.
Take `COC(=O)C1SC[C@H]2C(=O)N(c3ccccc3)C(=O)N12` (some centres not stated): the TGI in the test with BT-549 breast, in the test on HL-60(TB) leukemia, in the test with UACC-257 melanoma, in the test with SK-MEL-28 melanoma, in the test on CAKI-1 renal and in the test with UO-31 renal was greater than 100 µM in each case. Further, the TGI in the test with EKVX NSCLC, in the test on M14 melanoma, in the test with NCI-H226 lung and in the test on K-562 leukemia was greater than 100 µM throughout.
With `C(/C=C/Nc1ccc(-c2ccccc2)cc1)=Nc1ccc(-c2ccccc2)cc1`, the TGI in the test with BT-549 breast, in the test with HL-60(TB) leukemia, in the test on UACC-257 melanoma, in the test with SK-MEL-28 melanoma, in the test on CAKI-1 renal and in the test on UO-31 renal was greater than 100 µM in each case. For the same compound, the TGI in the test with EKVX NSCLC, in the test on M14 melanoma, with NCI-H226 lung and in the test on K-562 leukemia was greater than 100 µM each time.
As for `COc1ccc(NC(=S)Nc2c(C)n(C)n(-c3ccccc3)c2=O)cc1`, the TGI in the test on BT-549 breast, in the test with HL-60(TB) leukemia, in the test with UACC-257 melanoma, in the test with SK-MEL-28 melanoma, with CAKI-1 renal and in the test with UO-31 renal was greater than 100 µM each time. Further, the TGI in the test with EKVX NSCLC, with M14 melanoma, in the test with NCI-H226 lung and with K-562 leukemia was greater than 100 µM each time.
For `OC1(C2(c3ccc(Cl)cc3)CCCC2)c2ccccc2C2=NCCN21` (configuration not stated), the TGI in the test on BT-549 breast was 31.5 µM; in the test on HL-60(TB) leukemia, 33.2 µM; with UACC-257 melanoma, 29.4 µM; with SK-MEL-28 melanoma it was 31 µM; in the test on CAKI-1 renal, 28.9 µM; in the test with UO-31 renal it was 24.1 µM. The TGI in the test on EKVX NSCLC is 31.6 µM; in the test with M14 melanoma, 28.6 µM; with NCI-H226 lung, 33 µM; with K-562 leukemia, 20.4 µM.
`CCSc1nc(C)nc2c1sc1nc3ccccc3n12`: the TGI with BT-549 breast, in the test on HL-60(TB) leukemia, in the test on UACC-257 melanoma, in the test on SK-MEL-28 melanoma, with CAKI-1 renal and in the test on UO-31 renal was greater than 100 µM each time. In addition, the TGI in the test on EKVX NSCLC, in the test with M14 melanoma, with NCI-H226 lung and in the test on K-562 leukemia was greater than 100 µM in each case.
Regarding `COc1cc2c3cc1Oc1c(OC)c(OC)cc4c1C(Cc1ccc(O)c(c1)-c1cc(ccc1OC)CC3N(C)CC2)N(C)CC4` (configuration not stated), the TGI with BT-549 breast was 51.1 µM; with HL-60(TB) leukemia, 15.4 µM; in the test on UACC-257 melanoma, 59.3 µM; in the test on SK-MEL-28 melanoma, 82.7 µM; in the test with CAKI-1 renal it was 59.6 µM; in the test with UO-31 renal it was 29.2 µM. Moreover, the TGI with EKVX NSCLC is 91.1 µM; with M14 melanoma, 15.5 µM; with NCI-H226 lung, greater than 100 µM; in the test on K-562 leukemia, 61.8 µM.
For the compound `Clc1nc(Nc2nc3ccccc3[nH]2)nc(Cl)c1-c1ccccc1`, the TGI was 42.5 µM in the test with BT-549 breast; greater than 100 µM in the test on HL-60(TB) leukemia; 80.2 µM in the test with UACC-257 melanoma; 27 µM in the test with SK-MEL-28 melanoma; greater than 100 µM in the test on CAKI-1 renal; 42.4 µM with UO-31 renal. Besides, the TGI in the test on EKVX NSCLC is 71.4 µM; in the test on M14 melanoma it was 98 µM; with NCI-H226 lung, 46.4 µM; in the test with K-562 leukemia, greater than 100 µM.
`CCCCCCC(=O)c1ccc2ccccc2c1O`: the TGI in the test on BT-549 breast is greater than 100 µM; in the test with HL-60(TB) leukemia it was greater than 100 µM; with UACC-257 melanoma it was greater than 100 µM; in the test with SK-MEL-28 melanoma, greater than 100 µM; in the test with CAKI-1 renal, 95.4 µM; in the test on UO-31 renal it was greater than 100 µM. Moreover, the TGI with EKVX NSCLC, in the test on M14 melanoma, in the test on NCI-H226 lung and with K-562 leukemia was greater than 100 µM each time.
As to `CS(=O)(=O)CCC(N)P(=O)(O)O` (configuration not stated), the TGI in the test on BT-549 breast, in the test with HL-60(TB) leukemia, in the test with UACC-257 melanoma, in the test on SK-MEL-28 melanoma, in the test with CAKI-1 renal and with UO-31 renal was greater than 100 µM in each case. Further, the TGI in the test on EKVX NSCLC, in the test on M14 melanoma, in the test with NCI-H226 lung and in the test on K-562 leukemia was greater than 100 µM throughout.
